Laboratory results as given in US20070117770A1, “Human ribosomal DNA (rDNA) and ribosomal RNA (rRNA) nucleic acids and uses thereof” (Cylene Pharmaceuticals, Inc., priority 2005, published 2007).

What was measured:
Assay in all cases: Protein kinase inhibition assay
[1] = system: CaMKII(r); type: biochemical, rat; details: 2.5 μM
Experimental: (§1) Certain compounds were tested for activity in protein kinase inhibition assays. All substrates were dissolved and diluted to working stocks in de-ionized water, apart from histone H1 (10× working stock in 20 mM MOPS pH 7.0), PDKtide (10× working stock in 50 mM Tris pH 7.0) ATF2 (which is typically stored at a 20× working stock in 50 mM Tris pH 7.5, 150 mM NaCl, 0.1 mM EGTA, 0.03% Brij-35, 50% glycerol, 1 mM benzamidine, 0.2 mM PMSF and 0.1% R-mercaptoethanol), KKLNRTLSFAEPG (SEQ ID NO:203) and RRRLSFAEPG (SEQ ID NO:204) (50 mM HEPES pH 7.4) and GGEEEEYFELVKKKK (SEQ ID NO:205) (20 mM MOPS pH 7.0). All kinases were pre-diluted to a 10× working concentration prior to addition into the assay. The composition of the dilution buffer for each kinase is detailed below.
In a final reaction volume of 25 μl, CaMKII (r) (5-10 mU) is incubated with 40 mM HEPES pH 7.4, 5 mM CaCl2, 30 μg/ml calmodulin, 30 μM KKLNRTLSVA (SEQ ID NO:212), 10 mM MgAcetate and [gamma-33P-ATP] (specific activity approx. 500 cpm/pmol, concentration as required). The reaction is initiated by the addition of the MgATP mix. After incubation for 40 minutes at room temperature, the reaction is stopped by the addition of 5 μl of a 3% phosphoric acid solution. […]

[2] = target: EphA3(h) (Homo sapiens, UniProt P29320); type: biochemical; details: read-out: percent residual activity of EphA3(h)
Chain of EphA3(h) (P29320 21-983): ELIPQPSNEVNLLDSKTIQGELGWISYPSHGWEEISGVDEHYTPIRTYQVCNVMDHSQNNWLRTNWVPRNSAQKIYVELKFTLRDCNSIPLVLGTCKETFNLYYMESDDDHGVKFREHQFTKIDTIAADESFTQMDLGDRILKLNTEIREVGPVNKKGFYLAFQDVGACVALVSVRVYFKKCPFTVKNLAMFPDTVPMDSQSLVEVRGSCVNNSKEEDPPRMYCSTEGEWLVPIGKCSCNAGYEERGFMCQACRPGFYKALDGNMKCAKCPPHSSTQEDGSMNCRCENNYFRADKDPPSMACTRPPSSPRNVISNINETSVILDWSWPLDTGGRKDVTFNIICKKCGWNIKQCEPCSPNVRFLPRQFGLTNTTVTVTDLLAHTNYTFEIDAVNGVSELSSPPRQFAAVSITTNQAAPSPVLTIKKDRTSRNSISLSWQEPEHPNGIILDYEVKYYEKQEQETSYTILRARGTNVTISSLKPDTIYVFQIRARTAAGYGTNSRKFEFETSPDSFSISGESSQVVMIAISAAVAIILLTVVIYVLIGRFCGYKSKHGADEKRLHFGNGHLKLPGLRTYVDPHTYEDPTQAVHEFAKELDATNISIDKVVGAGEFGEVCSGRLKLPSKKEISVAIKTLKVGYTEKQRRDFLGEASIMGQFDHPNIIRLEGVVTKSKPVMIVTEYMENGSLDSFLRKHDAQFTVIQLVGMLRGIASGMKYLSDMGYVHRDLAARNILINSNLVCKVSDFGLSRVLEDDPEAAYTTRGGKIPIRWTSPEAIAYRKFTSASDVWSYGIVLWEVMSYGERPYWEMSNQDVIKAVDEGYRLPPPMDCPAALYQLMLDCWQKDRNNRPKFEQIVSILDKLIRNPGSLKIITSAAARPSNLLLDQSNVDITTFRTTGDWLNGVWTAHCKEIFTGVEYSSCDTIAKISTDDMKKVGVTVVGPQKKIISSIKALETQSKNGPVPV
Experimental: as §1
(§2) In a final reaction volume of 25 μl, EphA3 (h) (5-10 mU) is incubated with 8 mM MOPS pH 7.0, 0.2 mM EDTA, 0.1 mg/ml poly(Glu, Tyr) 4:1, 10 mM MgAcetate and [gamma-33P-ATP] (specific activity approx. 500 cpm/pmol, concentration as required). The reaction is initiated by the addition of the MgATP mix. After incubation for 40 minutes at room temperature, the reaction is stopped by the addition of 5 μl of a 3% phosphoric acid solution. 10 μl of the reaction is then spotted onto a Filtermat A and washed three times for 5 minutes in 75 mM phosphoric acid and once in methanol prior to drying and scintillation counting.

[3] = target: FGFR1(h) (Homo sapiens, UniProt P11362); type: biochemical; details: read-out: percent residual activity of FGFR1(h)
Chain of FGFR1(h) (P11362 22-822): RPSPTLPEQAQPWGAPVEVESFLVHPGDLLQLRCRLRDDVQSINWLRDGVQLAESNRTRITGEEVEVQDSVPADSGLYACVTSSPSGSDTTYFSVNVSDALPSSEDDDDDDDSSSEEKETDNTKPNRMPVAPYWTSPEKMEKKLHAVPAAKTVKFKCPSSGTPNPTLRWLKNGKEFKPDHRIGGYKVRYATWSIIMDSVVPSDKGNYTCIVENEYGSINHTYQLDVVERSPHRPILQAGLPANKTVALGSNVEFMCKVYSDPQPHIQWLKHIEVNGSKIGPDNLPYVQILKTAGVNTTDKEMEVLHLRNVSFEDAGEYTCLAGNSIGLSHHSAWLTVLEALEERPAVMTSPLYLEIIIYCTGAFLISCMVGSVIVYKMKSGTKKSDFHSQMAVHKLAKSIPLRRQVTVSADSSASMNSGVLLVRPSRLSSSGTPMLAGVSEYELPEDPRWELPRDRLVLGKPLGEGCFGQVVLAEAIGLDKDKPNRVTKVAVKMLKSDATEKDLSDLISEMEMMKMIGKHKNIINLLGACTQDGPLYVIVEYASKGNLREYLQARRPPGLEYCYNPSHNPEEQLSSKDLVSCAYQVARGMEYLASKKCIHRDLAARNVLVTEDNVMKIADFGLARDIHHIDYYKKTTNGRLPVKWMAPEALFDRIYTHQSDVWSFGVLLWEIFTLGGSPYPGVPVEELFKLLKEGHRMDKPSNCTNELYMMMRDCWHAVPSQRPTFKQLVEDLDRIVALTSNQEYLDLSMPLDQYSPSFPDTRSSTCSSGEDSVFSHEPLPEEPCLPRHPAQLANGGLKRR
Experimental: as §1
as §2, with “FGFR1” for “EphA3”, “250 μM KKKSPGEYVNIEFG (SEQ ID NO:207),” for “0.1 mg/ml poly(Glu, Tyr) 4:1,”, “[y-33P-ATP]” for “[gamma-33P-ATP]”, “MGATP” for “MgATP”, “P30 filtermat” for “Filtermat A”

[4] = target: MAPK2(h) (Homo sapiens, UniProt P28482); type: biochemical; details: read-out: percent residual activity of MAPK2(h)
Chain of MAPK2(h) (P28482 whole entry): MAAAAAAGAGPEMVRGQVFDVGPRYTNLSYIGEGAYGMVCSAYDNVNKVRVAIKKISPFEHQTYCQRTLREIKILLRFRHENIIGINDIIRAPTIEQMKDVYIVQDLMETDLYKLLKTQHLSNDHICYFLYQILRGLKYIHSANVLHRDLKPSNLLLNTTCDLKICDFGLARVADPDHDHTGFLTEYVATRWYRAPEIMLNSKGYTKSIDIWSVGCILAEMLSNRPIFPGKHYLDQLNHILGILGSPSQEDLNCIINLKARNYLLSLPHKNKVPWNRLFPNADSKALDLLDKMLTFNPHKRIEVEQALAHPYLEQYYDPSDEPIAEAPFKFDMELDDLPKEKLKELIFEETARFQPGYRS
Experimental: as §1
In a final reaction volume of 25 μl, MAPK2 (h) (5-10 mU) is incubated with 25 mM Tris pH 7.5, 0.02 mM EGTA, 0.33 mg/ml myelin basic protein, 10 mM MgAcetate and [gamma-33P-ATP] (specific activity approx. 500 cpm/pmol, concentration as required). The reaction is initiated by the addition of the MgATP mix. After incubation for 40 minutes at room temperature, the reaction is stopped by the addition of […] of a 3% phosphoric acid solution. 10 μl of the reaction is then spotted onto a P30 filtermat and washed three times for 5 minutes in 75 mM phosphoric acid and once in methanol prior to drying and scintillation counting.

[5] = target: Rse(h) (Homo sapiens, UniProt Q06418); type: biochemical; details: read-out: percent residual activity of Rse(h)
Chain of Rse(h) (Q06418 41-890): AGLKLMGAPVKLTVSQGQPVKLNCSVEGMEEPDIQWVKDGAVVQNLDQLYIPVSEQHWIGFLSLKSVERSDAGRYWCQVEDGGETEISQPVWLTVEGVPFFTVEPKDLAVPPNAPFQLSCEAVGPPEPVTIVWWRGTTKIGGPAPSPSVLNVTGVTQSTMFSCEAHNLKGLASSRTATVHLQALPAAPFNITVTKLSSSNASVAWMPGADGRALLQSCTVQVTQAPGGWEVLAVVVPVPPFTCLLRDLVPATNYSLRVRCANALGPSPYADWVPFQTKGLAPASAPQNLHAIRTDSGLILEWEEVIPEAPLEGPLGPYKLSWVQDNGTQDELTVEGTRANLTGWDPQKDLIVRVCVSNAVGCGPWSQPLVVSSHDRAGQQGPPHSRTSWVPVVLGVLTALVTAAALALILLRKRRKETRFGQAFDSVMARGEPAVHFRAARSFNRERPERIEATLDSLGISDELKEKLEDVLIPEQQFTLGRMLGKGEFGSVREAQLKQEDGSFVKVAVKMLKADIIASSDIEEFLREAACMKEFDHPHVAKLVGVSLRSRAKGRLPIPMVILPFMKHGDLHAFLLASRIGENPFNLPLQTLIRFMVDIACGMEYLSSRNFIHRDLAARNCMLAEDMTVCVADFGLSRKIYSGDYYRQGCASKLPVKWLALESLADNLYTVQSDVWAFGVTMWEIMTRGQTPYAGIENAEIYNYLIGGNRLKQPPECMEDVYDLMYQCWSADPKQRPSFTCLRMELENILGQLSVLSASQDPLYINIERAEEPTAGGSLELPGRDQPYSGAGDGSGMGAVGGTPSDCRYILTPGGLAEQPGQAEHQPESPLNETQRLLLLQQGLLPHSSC
Experimental: as §1
In a final reaction volume of 25 μl, Rse (h) (5-10 mU) is incubated with 8 mM MOPS pH 7.0, 0.2 mM EDTA, 250 μM KVEKIGEGTYGVVYK (SEQ ID NO:211), 1 mM MnCl2, 10 mM MgAcetate and [gamma-33P-ATP] (specific activity approx. 500 cpm/pmol, concentration as required). The reaction is initiated by the addition of the MgATP mix. After incubation for 40 minutes at room temperature, the reaction is stopped by the addition of 5 μl of a 3% phosphoric acid solution. […]

[6] = target: TSSK2(h) (Homo sapiens, UniProt Q96PF2); type: biochemical; details: read-out: percent residual activity of TSSK2(h)
Chain of TSSK2(h) (Q96PF2 whole entry): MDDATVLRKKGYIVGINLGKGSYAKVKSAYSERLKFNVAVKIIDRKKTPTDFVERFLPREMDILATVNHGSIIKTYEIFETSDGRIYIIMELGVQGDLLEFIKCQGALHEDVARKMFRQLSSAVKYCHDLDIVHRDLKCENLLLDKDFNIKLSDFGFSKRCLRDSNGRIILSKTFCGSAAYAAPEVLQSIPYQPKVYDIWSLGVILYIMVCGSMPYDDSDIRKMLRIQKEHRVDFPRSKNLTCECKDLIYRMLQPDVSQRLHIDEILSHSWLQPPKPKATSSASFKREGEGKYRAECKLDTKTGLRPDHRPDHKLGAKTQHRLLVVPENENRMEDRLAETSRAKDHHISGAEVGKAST
Experimental: as §1
as §2, with “TSSK2” for “EphA3”, “100 μM […] (SEQ ID NO:213),” for “0.1 mg/ml poly(Glu, Tyr) 4:1,”, “[y-33P-ATP]” for “[gamma-33P-ATP]”, “P30 filtermat” for “Filtermat A”

| SMILES | percent residual activity of CaMKII(r) [1] [%] | remaining activity at 2.5 µM [2] [%] | remaining activity at 2.5 µM [3] [%] | remaining activity at 2.5 µM [4] [%] | remaining activity at 2.5 µM [5] [%] | remaining activity at 2.5 µM [6] [%] |
| --- | --- | --- | --- | --- | --- | --- |
| CN1CCCC1CCNC(=O)c1cn2c3c(c(N4CCC(c5cnccn5)C4)c(F)cc3c1=O)Oc1cc3ccccc3cc1-2 (stereo not drawn) [Compound A-1] | 107 | 91 | 84 | 101 | 92 | 105 |
| CC(=O)N1CCN(c2ccc3c(=O)c(C(=O)NCCN4CCCC4)c4n(C)c5ccccc5n4c3n2)CC1 [Compound B-1] | 113 | 118 | 118 | 108 | 92 | 110 |
